Measurements reported in the CheMixHub viscosity set.
± gives the uncertainty stated by the source.

Experiment: xn = mol fraction of the nth substance listed

CN(C)c1ccccc1 + O=S1(=O)CCCC1
viscosity [mPa·s], 101 kPa
Settings | x1 = 0.1056 | x1 = 0.2173 | x1 = 0.2989 | x1 = 0.4055 | x1 = 0.5001 | x1 = 0.6087 | x1 = 0.6965 | x1 = 0.798 | x1 = 0.9131
303.15 K | 7.8 ± 0.16 | 5.97 ± 0.13 | 4.93 ± 0.1 | 3.86 ± 0.08 | 3.12 ± 0.07 | 2.47 ± 0.05 | 2.06 ± 0.04 | 1.68 ± 0.04 | 1.36 ± 0.03
308.15 K | 6.92 ± 0.15 | 5.33 ± 0.11 | 4.44 ± 0.09 | 3.51 ± 0.07 | 2.85 ± 0.06 | 2.26 ± 0.05 | 1.89 ± 0.04 | 1.55 ± 0.03 | 1.26 ± 0.03
313.15 K | 6.18 ± 0.13 | 4.79 ± 0.1 | 4.01 ± 0.09 | 3.19 ± 0.07 | 2.61 ± 0.06 | 2.08 ± 0.04 | 1.74 ± 0.04 | 1.43 ± 0.03 | 1.17 ± 0.03

CN(C)c1ccccc1 + O=[N+]([O-])c1ccccc1
298.15 K, 101 kPa
Settings | viscosity [mPa·s]
x2 = 0.1239 | 1.337 ± 0.024
x2 = 0.2063 | 1.355 ± 0.026
x2 = 0.5628 | 1.488 ± 0.033
x2 = 0.6512 | 1.565 ± 0.036
x2 = 0.8325 | 1.702 ± 0.042
x2 = 0.9168 | 1.766 ± 0.045

CCCC[P+](CC)(CC)CC.N#Cc1ccc[n-]1 + OCC(O)CO
100 kPa
Settings | viscosity [mPa·s]
293.15 K, x1 = 0.259 | 933 ± 140
293.15 K, x1 = 0.34 | 737 ± 110
298.15 K, x1 = 0.004 | 876 ± 130
298.15 K, x1 = 0.018 | 953 ± 140
298.15 K, x1 = 0.129 | 932 ± 140
298.15 K, x1 = 0.187 | 768 ± 120
303.15 K, x1 = 0.058 | 695 ± 100
303.15 K, x1 = 0.08 | 692 ± 100

CCCCCCCCCCCCCCCCCC[P+](CCCC)(CCCC)CCCC.N#Cc1ccc[n-]1 + OCCN(CCO)CCO
viscosity [mPa·s], 100 kPa
Settings | 293.15 K | 298.15 K | 303.15 K | 313.15 K
x1 = 0.014 | 971 ± 150 | 643 ± 96 | 420 ± 61 | 192 ± 28
x1 = 0.029 | 1032 ± 160 | 613 ± 91 | 390 ± 57 | 189 ± 27
x1 = 0.046 | 1123 ± 170 | 683 ± 100 | 439 ± 64 | 217 ± 31
x1 = 0.085 | 1228 ± 190 | 775 ± 120 | 506 ± 75 | 248 ± 36
x1 = 0.104 | 1251 ± 190 | 794 ± 120 | 526 ± 78 | 258 ± 37
x1 = 0.214 | 1185 ± 180 | 795 ± 120 | 538 ± 79 | 267 ± 39
x1 = 0.286 | 1096 ± 170 | 746 ± 110 | 509 ± 75 | 257 ± 37
x1 = 0.387 | 1019 ± 150 | 704 ± 100 | 483 ± 71 | 248 ± 36
x1 = 0.475 | 928 ± 140 | 646 ± 96 | 448 ± 66 | 233 ± 34
x1 = 0.548 | 856 ± 130 | 600 ± 89 | 422 ± 62 | 225 ± 32
x1 = 0.73 | 847 ± 130 | 614 ± 91 | 459 ± 67 | 242 ± 35
x1 = 0.834 | 925 ± 140 | 653 ± 97 | 459 ± 67 | 244 ± 35

CCCC[P+](CC)(CC)CC.N#Cc1ccc[n-]1 + OCCN(CCO)CCO
293.15 K, 100 kPa
Settings | viscosity [mPa·s]
x1 = 0.018 | 956 ± 140
x1 = 0.089 | 975 ± 150
x1 = 0.104 | 937 ± 140
x1 = 0.223 | 809 ± 120
x1 = 0.413 | 679 ± 100

CCCCOC(=O)c1ccccc1C(=O)OCCCC + Oc1cccc(O)c1
Settings | viscosity [mPa·s]
293.15 K, 101 kPa, x2 = 0.35 | 69.1 ± 2.8

[2H]O[2H] + [Br-].[K+]
viscosity [mPa·s], 101 kPa
Settings | x2 = 0.012 | x2 = 0.0375 | x2 = 0.056 | x2 = 0.067 | x2 = 0.073 | x2 = 0.081
298.15 K | 1.086 ± 0.009 | 1.046 ± 0.009 | 1.024 ± 0.008 | 1.018 ± 0.008 | 1.03 ± 0.009 | 1.047 ± 0.009
308.15 K | 0.854 ± 0.007 | 0.856 ± 0.007 | 0.853 ± 0.007 | 0.85 ± 0.007 | 0.868 ± 0.007 | 0.884 ± 0.007
318.15 K | 0.715 ± 0.006 | 0.725 ± 0.006 | 0.732 ± 0.006 | 0.739 ± 0.006 | 0.754 ± 0.006 | 0.767 ± 0.007
